Assay results reported in patent publication US20260125382A1, “COMPOUNDS FOR INHIBITING OR DEGRADING CDK2 AND/OR CDK9 AND MEDICINAL USE THEREOF” (KOREA RESEARCH INSTITUTE OF CHEMICAL TECHNOLOGY, priority 2022, published 2026).

What was measured:
CDK2 = target: T1, CDK2 (Homo sapiens, UniProt P24941); experiment: CDK protein degradation activity (Western blotting), CDK2; assay type: cell-based; details: MDA-MB-231 cells, 16 hours, Western blot
T1 construct: endogenous in cells; host or cells: MDA-MB-231
Experimental: (§1) In order to evaluate the CDK protein degradation activity of the compounds according to the present invention, the following experiment was conducted.
(§2) MDA-MB-231 cells were seeded at 5×10^5 cells per well in a 6-well plate. The next day, the compounds were treated in each well to achieve final concentrations of 100 nM, 1 μM, and 10 μM. For the control group, an equal amount of DMSO was treated in the well as the compound. After 16 hours of treatment, cells were collected, and cell lysates were prepared using Triton X-100 lysis buffer (50 mM HEPES, pH 7.5, 40 mM NaCl, 1% Triton X-100, 1 mM EDTA, 1 mM EGTA, 10 mM pyrophosphate, 10 mM β-glycerophosphate, 50 mM NaF, 1 mM NaVO4, protease inhibitor). Cell lysates were quantified and separated by size using sodium dodecyl sulfate-polyacrylamide gel electrophoresis (SDS-PAGE). Western blotting was then performed using antibodies that recognize CDK2, CDK9, and tubulin, respectively. The results obtained by Western blotting were quantitatively analyzed using the ImageJ program, and representative images according to the experimental results are shown in FIG. 1.

CDK9 = target: T2, CDK9 (Homo sapiens, UniProt P50750); experiment: CDK protein degradation activity (Western blotting), CDK9; assay type: cell-based; details: MDA-MB-231 cells, 16 hours, Western blot
T2 construct: endogenous in cells; host or cells: MDA-MB-231
T2 sequence (P50750 whole entry): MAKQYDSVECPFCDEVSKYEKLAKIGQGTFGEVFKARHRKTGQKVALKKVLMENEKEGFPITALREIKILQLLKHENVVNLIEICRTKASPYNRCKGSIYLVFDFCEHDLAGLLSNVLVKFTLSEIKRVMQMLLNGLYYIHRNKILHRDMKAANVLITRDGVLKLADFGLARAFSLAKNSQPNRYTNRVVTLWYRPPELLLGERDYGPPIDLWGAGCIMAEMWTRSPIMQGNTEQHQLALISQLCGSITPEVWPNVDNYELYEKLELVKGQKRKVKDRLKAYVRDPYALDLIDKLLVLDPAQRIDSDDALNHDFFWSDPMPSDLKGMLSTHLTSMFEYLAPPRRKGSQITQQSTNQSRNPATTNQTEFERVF
Experimental: as §1, §2

Compound	Enzyme degradation CDK2 (% remaining) @ 0.1 μM (CDK2)	Enzyme degradation CDK2 (% remaining) @ 1 μM (CDK2)	Enzyme degradation CDK2 (% remaining) @ 10 μM (CDK2)	Enzyme degradation CDK9 (% remaining) @ 0.1 μM (CDK9)	Enzyme degradation CDK9 (% remaining) @ 1 μM (CDK9)	Enzyme degradation CDK9 (% remaining) @ 10 μM (CDK9)
Cc1cccc(C(=O)N[C@H]2C[C@@H](n3cnc4c(NC5CCN(CCC6CCN(C(=O)CNc7ccc8c(c7)C(=O)N([C@H]7CCC(=O)NC7=O)C8=O)CC6)CC5)ncnc43)C2)n1 (racemic) [Compound 33, N-((1s,3s)-3-(6-((1-(2-(1-((2-(2,6-dioxopiperidin-3-yl)-1,3-dioxoisoindolin-5-yl)glycyl)piperidin-4-yl)ethyl)piperidin-4-yl)amino)-9H-purin-9-yl)cyclobutyl)-6-methylpicolinamide]	40%	30%	50%	0/0/0%	0/0/0%	0/0/0%
Cc1cccc(C(=O)N[C@H]2C[C@@H](n3cnc4c(NC5CCN(CCCN6CCN(c7ccc8c(c7)C(=O)N([C@H]7CCC(=O)NC7=O)C8=O)CC6)CC5)ncnc43)C2)n1 (racemic) [Compound 41, N-((1s,3s)-3-(6-((1-(3-(4-(2-(2,6-dioxopiperidin-3-yl)-1,3-dioxoisoindolin-5-yl)piperazin-1-yl)propyl)piperidin-4-yl)amino)-9H-purin-9-yl)cyclobutyl)-6-methylpicolinamide]	60%	60%	70%	0/0/0%	0/0/0%	0/0/0%
O=C1CC[C@H](N2C(=O)c3ccc(NCC(=O)N4CCC(CCCN5CCN(c6ccc(Nc7ncnc8c7ncn8[C@H]7C[C@@H](NC(=O)Cc8ccccc8)C7)cc6)CC5)CC4)cc3C2=O)C(=O)N1 (racemic) [Compound 255, N-((1s,3s)-3-(6-((4-(4-(3-(1-((2-(2,6-dioxopiperidin-3-yl)-1,3-dioxoisoindolin-5-yl)glycyl)piperidin-4-yl)propyl)piperazin-1-yl)phenyl)amino)-9H-purin-9-yl)cyclobutyl)-2-phenylacetamide]	30/30/30%	30/30/30%	30/30/30%	0/0/0%	0/0/0%	0/0/0%
Cc1cccc(C(=O)N[C@H]2C[C@@H](n3cnc4c(NC5CCN(CCCCCCNc6ccc7c(c6)C(=O)N([C@H]6CCC(=O)NC6=O)C7=O)CC5)ncnc43)C2)n1 [Compound 17, N-((1s,3s)-3-(6-((1-(6-((2-(2,6-dioxopiperidin-3-yl)-1,3-dioxoisoindolin-5-yl)amino)hexyl)piperidin-4-yl)amino)-9H-purin-9-yl)cyclobutyl)-6-methylpicolinamide]	90%	100%	50%	10%	0%	0%
Cc1cccc(C(=O)N[C@H]2C[C@@H](n3cnc4c(NC5CCN(CC6CCN(C(=O)CNc7ccc8c(c7)C(=O)N([C@H]7CCC(=O)NC7=O)C8=O)CC6)CC5)ncnc43)C2)n1 [Compound 25, N-((1s,3s)-3-(6-((1-((1-((2-(2,6-dioxopiperidin-3-yl)-1,3-dioxoisoindolin-5-yl)glycyl)piperidin-4-yl)methyl)piperidin-4-yl)amino)-9H-purin-9-yl)cyclobutyl)-6-methylpicolinamide]	20%	20%	30%	0/0/0%	0/0/0%	0/0/0%

Now from value to compound:

Enzyme degradation CDK2 (% remaining) @ 0.1 μM (CDK2)	Enzyme degradation CDK2 (% remaining) @ 1 μM (CDK2)	Enzyme degradation CDK2 (% remaining) @ 10 μM (CDK2)	Enzyme degradation CDK9 (% remaining) @ 0.1 μM (CDK9)	Enzyme degradation CDK9 (% remaining) @ 1 μM (CDK9)	Enzyme degradation CDK9 (% remaining) @ 10 μM (CDK9)	Compound
20/20/20%	20/20/20%	20/20/20%	10/10/10%	10/10/10%	10/10/10%	2,6-dichloro-N-((1s,3s)-3-(6-((4-(4-((4-(1-(2-(2,6-dioxopiperidin-3-yl)-1,3-dioxoisoindolin-5-yl)azetidin-3-carbonyl)piperazin-1-yl)methyl)piperidin-1-yl)phenyl)amino)-9H-purin-9-yl)cyclobutyl)benzamide [Compound 473]
20%	0%	0%	0/0/0%	0/0/0%	0/0/0%	O=C1CC[C@H](N2C(=O)c3ccc(NCC(=O)N4CCC5(CC4)CC(N4CCC(c6ccc(Nc7ncnc8c7ncn8[C@H]7C[C@@H](NC(=O)Cc8ccccc8)C7)cc6)CC4)C5)cc3C2=O)C(=O)N1 (racemic) [Compound 296, N-((1s,3s)-3-(6-((4-(1-(7-((2-(2,6-dioxopiperidin-3-yl)-1,3-dioxoisoindolin-5-yl)glycyl)-7-azaspiro[3.5]nonan-2-yl)piperidin-4-yl)phenyl)amino)-9H-purin-9-yl)cyclobutyl)-2-phenylacetamide]
100%	70%	100%	40%	0%	0%	Cc1cccc(C(=O)N[C@H]2C[C@@H](n3cnc4c(NCCC5CCN(CC6CCN(C(=O)CCNc7ccc8c(c7)C(=O)N([C@H]7CCC(=O)NC7=O)C8=O)CC6)CC5)ncnc43)C2)n1 (racemic) [Compound 310, N-((1s,3s)-3-(6-((2-(1-((1-(3-((2-(2,6-dioxopiperidin-3-yl)-1,3-dioxoisoindolin-5-yl)amino)propanoyl)piperidin-4-yl)methyl)piperidin-4-yl)ethyl)amino)-9H-purin-9-yl)cyclobutyl)-6-methylpicolinamide]
10/10/10%	10/10/10%	10/10/10%	0/0/0%	0/0/0%	0/0/0%	N#Cc1cccc(C(=O)N[C@H]2C[C@@H](n3cnc4c(Nc5ccc(N6CCN(CC7CCN(c8ccc9nnn([C@H]%10CCC(=O)NC%10=O)c(=O)c9c8)CC7)CC6)cc5)ncnc43)C2)n1 (racemic) [Compound 418, 6-cyano-N-((1s,3s)-3-(6-((4-(4-((1-(3-(2,6-dioxopiperidin-3-yl)-4-oxo-3,4-dihydrobenzo[d][1,2,3]triazin-6-yl)piperidin-4-yl)methyl)piperazin-1-yl)phenyl)amino)-9H-purin-9-yl)cyclobutyl)picolinamide]
